How the values were obtained:
[1] = Drug concentration in Wistar Han rat plasma at 100 mg/kg, po measured at 6 hrs by HPLC-MS/MS
[2] = Drug concentration in Wistar Han rat brain at 100 mg/kg, po measured at 6 hrs by HPLC-MS/MS
[3] = Ratio of drug concentration in brain to plasma in Wistar Han rat at 100 mg/kg, po measured at 2 hrs by HPLC-MS/MS
[4] = Drug concentration in Wistar Han rat plasma at 100 mg/kg, po measured at 2 hrs by HPLC-MS/MS
[5] = Ratio of drug concentration in brain to plasma in Wistar Han rat at 100 mg/kg, po measured at 6 hrs by HPLC-MS/MS
[6] = Drug concentration in Wistar Han rat brain at 100 mg/kg, po measured at 0.37 hrs by HPLC-MS/MS
[7] = Ratio of drug concentration in brain to plasma in Wistar Han rat at 100 mg/kg, po measured at 0.37 hrs by HPLC-MS/MS
[8] = Drug concentration in Wistar Han rat plasma at 100 mg/kg, po measured at 0.37 hrs by HPLC-MS/MS
[9] = Drug concentration in Wistar Han rat brain at 100 mg/kg, po measured at 2 hrs by HPLC-MS/MS
in vivo [10] = conditions: Sprague-Dawley, rat, plasma, po, 10 mg/kg
[11] = Clearance in Sprague-Dawley rat at 5 mg/kg, iv; conditions: in vivo
[12] = Half life in Sprague-Dawley rat at 10 mg/kg, po; conditions: in vivo
in vivo [13] = conditions: Sprague-Dawley, rat, plasma, po, 10 mg/kg; remark: listed apart in the source
[14] = Volume of distribution at steady state in Sprague-Dawley rat at 5 mg/kg, iv; conditions: in vivo
in vivo [15] = conditions: Sprague-Dawley, rat, po, 10 mg/kg
[16] = Half life in Sprague-Dawley rat at 5 mg/kg, iv; conditions: in vivo
[17] = Drug concentration in Sprague-Dawley rat at 5 mg/kg, iv measured at 0 hrs; conditions: in vivo

Row | Structure (SMILES) | concentration at 6 h [1] [ng/mL] | concentration at 6 h [2] [ng/g] | Kp at 2 h [3] | concentration at 2 h [4] [ng/mL] | Kp at 6 h [5] | concentration at […] [6] [ng/g] | Kp at […] [7] | concentration at […] [8] [ng/mL] | concentration at 2 h [9] [ng/g] | Cmax at 24 h (in vivo [10]) [ng/mL] | clearance [11] [mL/min/kg] | half-life [12] [min] | AUC(0-inf) (in vivo [13]) [ng·h/mL] | Vd [14] [L/kg] | bioavailability (in vivo [15]) [%] | half-life [16] [min] | concentration at 0 h [17] [ng/mL]
1 | COc1ccc2cccc(CCNC(C)=O)c2c1 [AGOMELATINE] | 450 | 1210 | 2.73 | 1230 | 2.73 | 13800 | 3.19 | 4200 | 3200 |  |  |  |  |  |  |  | 
2 | COc1ccc2[nH]cc(CCNC(C)=O)c2c1 [MELATONIN] |  |  |  |  |  |  |  |  |  | 2790 | 35.2 | 31.8 | 2490 | 1.05 | 53.5 | 19.8 | 935
3 | CCC(=O)NCC[C@@H]1CCc2ccc3c(c21)CCO3 [RAMELTEON] | 1150 | 1190 | 0.86 | 3450 | 1.02 | 2850 | 0.91 | 3160 | 3030 |  |  |  |  |  |  |  | 

— ChEMBL document CHEMBL4834400 (J Med Chem, 2021)
